Reference: ChEMBL document CHEMBL3596162, “Biaryls as potent, tunable dual neurokinin 1 receptor antagonists and serotonin transporter inhibitors” (Bioorg Med Chem Lett, 2015)

Key:
[1] = Displacement of [3H]-citalopram from gerbil SERT expressed in HEK293 cell membranes incubated for 60 mins by liquid scintillation counting method; set-up: species or system Gerbillinae
[2] = molecular target: Substance-P receptor (Meriones unguiculatus, UniProt Q5DUB1); assay: Displacement of [125I]-substance P from gerbil NK1 receptor expressed in HEK293 cell membranes incubated for 30 mins by liquid scintillation counting method; set-up: species or system Gerbillinae
Substance-P receptor (Meriones unguiculatus, UniProt Q5DUB1), sequence (Q5DUB1 whole entry): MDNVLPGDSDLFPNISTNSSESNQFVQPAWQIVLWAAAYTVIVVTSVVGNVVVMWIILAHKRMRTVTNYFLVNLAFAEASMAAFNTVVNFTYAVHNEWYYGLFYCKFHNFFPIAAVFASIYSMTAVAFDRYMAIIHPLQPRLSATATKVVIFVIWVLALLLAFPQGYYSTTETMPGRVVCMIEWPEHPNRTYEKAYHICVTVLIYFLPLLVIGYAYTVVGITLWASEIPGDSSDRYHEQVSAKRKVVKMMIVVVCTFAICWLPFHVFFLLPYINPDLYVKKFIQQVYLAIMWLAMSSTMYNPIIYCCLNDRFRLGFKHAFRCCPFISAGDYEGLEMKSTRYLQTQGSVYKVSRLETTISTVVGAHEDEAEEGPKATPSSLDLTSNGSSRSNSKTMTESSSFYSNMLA

[3] = system: HEK293; assay: Selectivity index, ratio of IC50 for gerbil SERT expressed in HEK293 cell membranes to IC50 for gerbil NK1 receptor expressed in HEK293 cell membranes; format: cell-based; settings: Gerbillinae
[4] = Ratio of drug concentration in brain to plasma of gerbil foot tap model at 10 mg/kg, po; format: ADME, organism-based; settings: gerbillinae, read-out: BPR
[5] = system: Gerbillinae; assay: In-vivo receptor occupancy at SERT in gerbil at 3 to 30 mg/kg, po measured after 4 hrs; format: functional, organism-based
[6] = system: Gerbillinae; assay: In-vivo receptor occupancy at NK1 receptor in gerbil at 3 to 30 mg/kg, po measured after 4 hrs; format: functional
[7] = molecular target: Substance-P receptor (Homo sapiens, UniProt P25103); assay: Binding affinity to human NK1 receptor
Substance-P receptor (Homo sapiens, UniProt P25103), sequence (P25103 whole entry): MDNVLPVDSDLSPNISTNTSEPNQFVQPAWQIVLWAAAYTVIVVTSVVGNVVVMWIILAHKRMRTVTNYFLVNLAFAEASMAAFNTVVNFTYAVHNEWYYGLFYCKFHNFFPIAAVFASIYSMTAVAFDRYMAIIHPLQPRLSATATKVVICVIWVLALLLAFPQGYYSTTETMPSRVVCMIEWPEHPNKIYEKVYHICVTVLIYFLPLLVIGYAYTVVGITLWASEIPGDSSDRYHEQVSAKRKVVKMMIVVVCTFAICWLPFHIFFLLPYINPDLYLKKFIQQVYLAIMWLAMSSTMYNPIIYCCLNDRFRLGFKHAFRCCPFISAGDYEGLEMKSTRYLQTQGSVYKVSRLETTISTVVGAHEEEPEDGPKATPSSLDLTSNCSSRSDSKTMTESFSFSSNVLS

[8] = system: Gerbillinae; assay: Inhibition of foot tapping in gerbil foot tap model at 10 mg/kg, po and treated with 3 pmol, icv GR-73632 and measured for 5 mins after animal regains righting reflex; format: functional
[9] = system: Gerbillinae; assay: In-vivo receptor occupancy at SERT in gerbil at 30 mg/kg, po measured after 4 hrs; format: functional
[10] = system: Gerbillinae; assay: In-vivo receptor occupancy at SERT in gerbil at 3 mg/kg, po measured after 4 hrs; format: functional
[11] = Plasma concentration in gerbil foot tap model at 10 mg/kg, po; format: ADME, organism-based; settings: gerbillinae, in vivo
[12] = Drug concentration in brain of gerbil foot tap model at 10 mg/kg, po; format: ADME, organism-based; settings: gerbillinae, in vivo, read-out: Drug uptake

Row | IC50 [1] | IC50 [2] | Compound | Ratio IC50 [3] | further results
1 | 7 nM | 0.32 nM | N#Cc1c(F)cc(-c2cc(COCC3(c4ccccc4)CCNCC3)cc(C(F)(F)F)c2)cc1F | 22 | –
2 | 16 nM | 1.6 nM | FC(F)(F)c1cc(COCC2(c3ccccc3)CCNCC2)cc(-c2ccncc2)c1 | 10 | –
3 | 4.1 nM | 70 nM | FC(F)(F)c1cc(COCC2(c3ccccc3)CCNCC2)cc(-c2nccs2)c1 | 0.06 | –
4 | 7.4 nM | 41 nM | FC(F)(F)c1cc(COCC2(c3ccccc3)CCNCC2)cc(-c2ccccn2)c1 | 0.2 | –
5 | 50 nM | 65 nM | Cn1nnnc1-c1cc(COCC2(c3ccccc3)CCNCC2)cc(C(F)(F)F)c1 | 0.8 | –
6 | 6.4 nM | 68 nM | FC(F)(F)c1cc(COCC2(c3ccccc3)CCNCC2)cc(-c2ccccc2Cl)c1 | 0.1 | –
7 | – | 0.05 nM | COc1ccc(-n2cnnn2)cc1CO[C@H]1CCCN[C@H]1c1ccccc1 | – | –
8 | 3.7 nM | 0.91 nM | N#Cc1cc(F)c(-c2cc(COCC3(c4ccccc4)CCNCC3)cc(C(F)(F)F)c2)cc1F | 4 | –
9 | 15 nM | 0.93 nM | COc1ccc(-c2cc(COCC3(c4ccccc4)CCNCC3)cc(C(F)(F)F)c2)cc1 | 16 | –
10 | 3.5 nM | 6.5 nM | O=[N+]([O-])c1ccccc1-c1cc(COCC2(c3ccccc3)CCNCC2)cc(C(F)(F)F)c1 | 0.5 | –
11 | 57 nM | 700 nM | FC(F)(F)c1cc(COCC2(c3ccccc3)CCNCC2)cc(-n2nnnc2C(F)(F)F)c1 | 0.08 | –
12 | 70 nM | 180 nM | Cc1nnnn1-c1cc(COCC2(c3ccccc3)CCNCC2)cc(C(F)(F)F)c1 | 0.4 | –
13 | 8.9 nM | 1.1 nM | N#Cc1ccc(-c2cc(COCC3(c4ccccc4)CCNCC3)cc(C(F)(F)F)c2)cc1F | 8 | –
14 | 10 nM | 49 nM | N#Cc1cccc(-c2cc(COCC3(c4ccccc4)CCNCC3)cc(C(F)(F)F)c2)c1 | 0.2 | –
15 | 45 nM | 7.1 nM | FC(F)(F)c1cc(COCC2(c3ccccc3)CCNCC2)cc(-c2ccc3c(c2)OCO3)c1 | 6 | –
16 | 14 nM | 24 nM | Cc1cccc(-c2cc(COCC3(c4ccccc4)CCNCC3)cc(C(F)(F)F)c2)c1 | 0.6 | –
17 | 1.8 nM | 2.8 nM | FC(F)(F)c1cc(COCC2(c3ccccc3)CCNCC2)cc(-c2ccc(Cl)cc2)c1 | 0.6 | –
18 | 18 nM | 47 nM | FC(F)(F)c1cc(COCC2(c3ccccc3)CCNCC2)cc(-c2ccco2)c1 | 0.4 | –
19 | 8.6 nM | 200 nM | FC(F)(F)c1cc(COCC2(c3ccccc3)CCNCC2)cc(-c2nnn[nH]2)c1 | 0.04 | –
20 | 6.4 nM | 8.4 nM | Cc1ccc(-c2cc(COCC3(c4ccccc4)CCNCC3)cc(C(F)(F)F)c2)cc1 | 0.8 | –
21 | 7.3 nM | 3.8 nM | O=[N+]([O-])c1ccc(-c2cc(COCC3(c4ccccc4)CCNCC3)cc(C(F)(F)F)c2)cc1 | 2 | –
22 | 6.3 nM | 5 nM | Fc1cccc(-c2cc(COCC3(c4ccccc4)CCNCC3)cc(C(F)(F)F)c2)c1 | 1 | –
23 | 4.2 nM | 54 nM | COc1ccccc1-c1cc(COCC2(c3ccccc3)CCNCC2)cc(C(F)(F)F)c1 | 0.1 | –
24 | 3.5 nM | 18 nM | CN(C)c1ccc(-c2cc(COCC3(c4ccccc4)CCNCC3)cc(C(F)(F)F)c2)cc1 | 0.2 | –

Row | IC50 [1] | IC50 [2] | Compound | Ratio IC50 [3] | further results
25 | 9.6 nM | 36 nM | Cn1nnc(-c2cc(COCC3(c4ccccc4)CCNCC3)cc(C(F)(F)F)c2)n1 | 0.3 | –
26 | 27 nM | 3.6 nM | Oc1ccc(-c2cc(COCC3(c4ccccc4)CCNCC3)cc(C(F)(F)F)c2)cc1 | 8 | –
27 | 37 nM | 87 nM | COc1ccc(-n2nnnc2C)cc1COCC1(c2ccccc2)CCNCC1 | 0.4 | –
28 | 4 nM | 0.45 nM | N#Cc1ccc(-c2cc(COCC3(c4ccccc4)CCNCC3)cc(C(F)(F)F)c2)cc1 | 9 | Kp [4]: 0.52; IC50 [7]: 0.59 nM; inhibition in vivo at 10 mg/kg [8]: 29%; concentration [11]: 365 nM; concentration [12]: 190 nM
29 | 13 nM | 130 nM | Cc1ccccc1-c1cc(COCC2(c3ccccc3)CCNCC2)cc(C(F)(F)F)c1 | 0.1 | –
30 | 4.2 nM | 5.2 nM | O=[N+]([O-])c1cccc(-c2cc(COCC3(c4ccccc4)CCNCC3)cc(C(F)(F)F)c2)c1 | 0.8 | –
31 | 2.7 nM | 1.2 nM | Cc1cc(-c2cc(COCC3(c4ccccc4)CCNCC3)cc(C(F)(F)F)c2)ccc1C#N | 2 | –
32 | 36 nM | 30 nM | FC(F)(F)c1ccc(-c2cc(COCC3(c4ccccc4)CCNCC3)cc(C(F)(F)F)c2)cc1 | 1 | –
33 | 30 nM | 25 nM | Nc1cccc(-c2cc(COCC3(c4ccccc4)CCNCC3)cc(C(F)(F)F)c2)c1 | 1 | –
34 | – | 0.03 nM | COc1ccc(-n2nnnc2C(F)(F)F)cc1CO[C@H]1CCCN[C@H]1c1ccccc1 | – | –
35 | 7.6 nM | 23 nM | Fc1ccccc1-c1cc(COCC2(c3ccccc3)CCNCC2)cc(C(F)(F)F)c1 | 0.3 | –
36 | 27 nM | 13 nM | Oc1cccc(-c2cc(COCC3(c4ccccc4)CCNCC3)cc(C(F)(F)F)c2)c1 | 2 | –
37 | 4 nM | 8.1 nM | N#Cc1ccc(-c2cc(COCC3(c4ccccc4)CCNCC3)cc(C(F)(F)F)c2)nc1 | 0.5 | –
38 | 3.1 nM | 1.1 nM | N#Cc1ccc(-c2cc(COCC3(c4ccccc4)CCNCC3)cc(C(F)(F)F)c2)cc1Cl | 3 | –
39 | 25 nM | 17 nM | COC(=O)c1ccc(-c2cc(COCC3(c4ccccc4)CCNCC3)cc(C(F)(F)F)c2)cc1 | 1 | –
40 | 1.5 nM | 2.2 nM | Fc1ccc(-c2cc(COCC3(c4ccccc4)CCNCC3)cc(C(F)(F)F)c2)cc1 | 0.7 | –
41 | 10 nM | 1.9 nM | N#Cc1ccc(-c2cc(COCC3(c4ccccc4)CCNCC3)cc(C(F)(F)F)c2)cn1 | 5 | –
42 | 110 nM | 120 nM | FC(F)(F)c1cc(COCC2(c3ccccc3)CCNCC2)cc(-c2ccc3ccccc3c2)c1 | 0.9 | –
43 | – | 0.09 nM | C[C@@H](O[C@H]1OCCN(Cc2n[nH]c(=O)[nH]2)[C@H]1c1ccc(F)cc1)c1cc(C(F)(F)F)cc(C(F)(F)F)c1 [APREPITANT] | – | –
44 | 3.7 nM | 6.3 nM | FC(F)(F)c1cc(COCC2(c3ccccc3)CCNCC2)cc(-c2ccccc2)c1 | 0.6 | –
45 | 14 nM | 3.4 nM | CCOc1ccc(-c2cc(COCC3(c4ccccc4)CCNCC3)cc(C(F)(F)F)c2)cc1 | 4 | –
46 | 47 nM | 4.8 nM | N#Cc1c(F)c(F)c(-c2cc(COCC3(c4ccccc4)CCNCC3)cc(C(F)(F)F)c2)c(F)c1F | 10 | –
47 | – | 0.05 nM | COc1ccc(-n2nnnc2C)cc1CO[C@H]1CCCN[C@H]1c1ccccc1 | – | –
48 | 120 nM | 540 nM | FC(F)(F)c1cc(COCC2(c3ccccc3)CCNCC2)cc(-c2cccc3ccccc23)c1 | 0.2 | –

Row | Compound | IC50 [1] | IC50 [2] | Ratio IC50 [3] | further results
49 | N#Cc1ccc(-c2cc(COCC3(c4ccccc4)CCN(Cc4ccccc4)CC3)cc(C(F)(F)F)c2)cc1 | 800 nM | 2 nM | 400 | –
50 | CC(C)N1CCC(COCc2cc(-c3ccc(C#N)cc3)cc(C(F)(F)F)c2)(c2ccccc2)CC1 | 450 nM | 0.39 nM | 1200 | –
51 | CN1CCC(COCc2cc(-c3ccc(C#N)cc3)cc(C(F)(F)F)c2)(c2ccccc2)CC1 | 9.5 nM | 0.29 nM | 33 | Kp [4]: 2.5; Occ [5]: Dose-dependent effect; Occ [6]: 88%; IC50 [7]: 0.2 nM; inhibition in vivo at 10 mg/kg [8]: 73%; Occ [9]: 84%; Occ [10]: 11%; concentration [11]: 526 nM; concentration [12]: 1300 nM
52 | CCN1CCC(COCc2cc(-c3ccc(C#N)cc3)cc(C(F)(F)F)c2)(c2ccccc2)CC1 | 420 nM | 0.25 nM | 1700 | –
53 | N#Cc1ccc(-c2cc(COCC3(c4ccccc4)CCN(C4CC4)CC3)cc(C(F)(F)F)c2)cc1 | 2100 nM | 1.8 nM | 1200 | –
